Laboratory results published in ChEMBL document CHEMBL2202954, “The effect of PLC-γ2 inhibitors on the growth of human tumour cells” (2012).

Experiments:
Type in all cases: functional
UO-31 = experiment: Cytotoxicity against human UO31 cells assessed as cellular growth at 10 uM by SRB assay
DU-145 = experiment: Cytotoxicity against human DU145 cells assessed as cellular growth at 10 uM by SRB assay
PC-3 = experiment: Cytotoxicity against human PC3 cells assessed as cellular growth at 10 uM by SRB assay
KM12 = experiment: Cytotoxicity against human KM12 cells assessed as cellular growth at 10 uM by SRB assay
NCI-H460 = experiment: Cytotoxicity against human NCI-H460 cells assessed as cellular growth at 10 uM by SRB assay
RPMI-8226 = experiment: Cytotoxicity against human RPMI8226 cells assessed as cellular growth at 10 uM by SRB assay
A549 = experiment: Cytotoxicity against human A549 cells assessed as cellular growth at 10 uM by SRB assay
HCC 2998 = experiment: Cytotoxicity against human HCC2998 cells assessed as cellular growth at 10 uM by SRB assay
BT-549 = experiment: Cytotoxicity against human BT549 cells assessed as cellular growth at 10 uM by SRB assay
MDA-MB-435 = experiment: Cytotoxicity against human MDA-MB-435 cells assessed as cellular growth at 10 uM by SRB assay
OVCAR-3 = experiment: Cytotoxicity against human OVCAR3 cells assessed as cellular growth at 10 uM by SRB assay
LOX IMVI = experiment: Cytotoxicity against human LOXIMVI cells assessed as cellular growth at 10 uM by SRB assay
HL-60(TB) = experiment: Cytotoxicity against human HL-60(TB) cells assessed as cellular growth at 10 uM by SRB assay
A498 = experiment: Cytotoxicity against human A498 cells assessed as cellular growth at 10 uM by SRB assay
786-0 = experiment: Cytotoxicity against human 786-0 cells assessed as cellular growth at 10 uM by SRB assay
SK-OV-3 = experiment: Cytotoxicity against human SKOV3 cells assessed as cellular growth at 10 uM by SRB assay
HOP-62 = experiment: Cytotoxicity against human HOP62 cells assessed as cellular growth at 10 uM by SRB assay
SNB-75 = experiment: Cytotoxicity against human SNB75 cells assessed as cellular growth at 10 uM by SRB assay
OVCAR-5 = experiment: Cytotoxicity against human OVCAR5 cells assessed as cellular growth at 10 uM by SRB assay
CCRF-CEM = experiment: Cytotoxicity against human CCRF-CEM cells assessed as cellular growth at 10 uM by SRB assay
NCI-H522 = experiment: Cytotoxicity against human NCI-H522 cells assessed as cellular growth at 10 uM by SRB assay
COLO 205 = experiment: Cytotoxicity against human COLO205 cells assessed as cellular growth at 10 uM by SRB assay
HOP-92 = experiment: Cytotoxicity against human HOP92 cells assessed as cellular growth at 10 uM by SRB assay
NCI-H322M = experiment: Cytotoxicity against human NCI-H322M cells assessed as cellular growth at 10 uM by SRB assay
MDA-MB-231 = experiment: Cytotoxicity against human MDA-MB-231 cells assessed as cellular growth at 10 uM by SRB assay
EKVX = experiment: Cytotoxicity against human EKVX cells assessed as cellular growth at 10 uM by SRB assay
HCT-15 = experiment: Cytotoxicity against human HCT15 cells assessed as cellular growth at 10 uM by SRB assay
SF-268 = experiment: Cytotoxicity against human SF268 cells assessed as cellular growth at 10 uM by SRB assay
SF-295 = experiment: Cytotoxicity against human SF295 cells assessed as cellular growth at 10 uM by SRB assay
MOLT-4 = experiment: Cytotoxicity against human MOLT4 cells assessed as cellular growth at 10 uM by SRB assay
CAKI-1 = experiment: Cytotoxicity against human Caki1 cells assessed as cellular growth at 10 uM by SRB assay
UACC-257 = experiment: Cytotoxicity against human UACC257 cells assessed as cellular growth at 10 uM by SRB assay
MDA-MB-468 = experiment: Cytotoxicity against human MDA-MB-468 cells assessed as cellular growth at 10 uM by SRB assay
Malme-3M = experiment: Cytotoxicity against human MALME-3M cells assessed as cellular growth at 10 uM by SRB assay
OVCAR-8 = experiment: Cytotoxicity against human OVCAR8 cells assessed as cellular growth at 10 uM by SRB assay
NCI-H23 = experiment: Cytotoxicity against human NCI-H23 cells assessed as cellular growth at 10 uM by SRB assay
RXF 393 = experiment: Cytotoxicity against human RXF393 cells assessed as cellular growth at 10 uM by SRB assay
Hs-578T = experiment: Cytotoxicity against human Hs578T cells assessed as cellular growth at 10 uM by SRB assay
SN12C = experiment: Cytotoxicity against human SN12C cells assessed as cellular growth at 10 uM by SRB assay
MCF7 = experiment: Cytotoxicity against human MCF7 cells assessed as cellular growth at 10 uM by SRB assay
TK-10 = experiment: Cytotoxicity against human TK10 cells assessed as cellular growth at 10 uM by SRB assay
M14 = experiment: Cytotoxicity against human M14 cells assessed as cellular growth at 10 uM by SRB assay
SF-539 = experiment: Cytotoxicity against human SF539 cells assessed as cellular growth at 10 uM by SRB assay
UACC-62 = experiment: Cytotoxicity against human UACC62 cells assessed as cellular growth at 10 uM by SRB assay
T47D = experiment: Cytotoxicity against human T47D cells assessed as cellular growth at 10 uM by SRB assay
SK-MEL-2 = experiment: Cytotoxicity against human SK-MEL-2 cells assessed as cellular growth at 10 uM by SRB assay
K562 = experiment: Cytotoxicity against human K562 cells assessed as cellular growth at 10 uM by SRB assay
IGROV-1 = experiment: Cytotoxicity against human IGROV1 cells assessed as cellular growth at 10 uM by SRB assay
SK-MEL-5 = experiment: Cytotoxicity against human SK-MEL-5 cells assessed as cellular growth at 10 uM by SRB assay
ACHN = experiment: Cytotoxicity against human ACHN cells assessed as cellular growth at 10 uM by SRB assay
OVCAR-4 = experiment: Cytotoxicity against human OVCAR4 cells assessed as cellular growth at 10 uM by SRB assay
[1] = Cytotoxicity against human NCI-ADR-RES cells assessed as cellular growth at 10 uM by SRB assay
SW-620 = experiment: Cytotoxicity against human SW620 cells assessed as cellular growth at 10 uM by SRB assay
HCT-116 = experiment: Cytotoxicity against human HCT116 cells assessed as cellular growth at 10 uM by SRB assay
NCI-H226 = experiment: Cytotoxicity against human NCI-H226 cells assessed as cellular growth at 10 uM by SRB assay
HT-29 = experiment: Cytotoxicity against human HT-29 cells assessed as cellular growth at 10 uM by SRB assay
U-251 = experiment: Cytotoxicity against human U251 cells assessed as cellular growth at 10 uM by SRB assay
SK-MEL-28 = experiment: Cytotoxicity against human SK-MEL-28 cells assessed as cellular growth at 10 uM by SRB assay
SNB-19 = experiment: Cytotoxicity against human SNB19 cells assessed as cellular growth at 10 uM by SRB assay
SR = experiment: Cytotoxicity against human SR cells assessed as cellular growth at 10 uM by SRB assay

Work on O=C(NCCc1ccccc1)c1[nH]c2ccccc2c1Cl yielded an Activity (UO-31) of 57.64%, an Activity (DU-145) of 91.9% and an Activity (PC-3) of 70.3%. It also gave an Activity (KM12) of 72.97%, an Activity (NCI-H460) of 89.75% and an Activity (RPMI-8226) of 71.07%. It also gave an Activity (A549) of 96.24%, an Activity (HCC 2998) of 101.44% and an Activity (BT-549) of 91.75%. It also gave an Activity (MDA-MB-435) of 96.07%, an Activity (OVCAR-3) of 72.81% and an Activity (LOX IMVI) of 89.47%. For the same compound, the Activity (HL-60(TB)) was 90.02%, the Activity (A498) was 81.46% and the Activity (786-0) was 102.69%. For the same compound, the Activity (SK-OV-3) was 91.3%, the Activity (HOP-62) was 86.43% and the Activity (SNB-75) was 79.43%. For the same compound, the Activity (OVCAR-5) was 104.54%, the Activity (CCRF-CEM) was 86.13% and the Activity (NCI-H522) was 96.12%. The Activity (COLO 205) was 99.13%, the Activity (HOP-92) was 72.64% and the Activity (NCI-H322M) was 98.86%. The Activity (MDA-MB-231) was 80.08%, the Activity (EKVX) was 57.12% and the Activity (HCT-15) was 86.01%. It also gave an Activity (SF-268) of 92.71%, an Activity (SF-295) of 82.28% and an Activity (MOLT-4) of 70.04%. The Activity (CAKI-1) was 78.12%, the Activity (UACC-257) was 96.54% and the Activity (MDA-MB-468) was 64.9%. It also gave an Activity (Malme-3M) of 109.22%, an Activity (OVCAR-8) of 84.42% and an Activity (NCI-H23) of 84.26%. It also gave an Activity (RXF 393) of 103.44%, an Activity (Hs-578T) of 97.21% and an Activity (SN12C) of 97.03%. It also gave an Activity (MCF7) of 83.19%, an Activity (TK-10) of 154.81% and an Activity (M14) of 106.45%. For the same compound, the Activity (SF-539) was 102.52%, the Activity (UACC-62) was 84.19% and the Activity (T47D) was 71.67%. For the same compound, the Activity (SK-MEL-2) was 129.02%, the Activity (K562) was 74.92% and the Activity (IGROV-1) was 82.65%. The Activity (SK-MEL-5) was 82.39%, the Activity (ACHN) was 90.71% and the Activity (OVCAR-4) was 82.6%. It also gave an Activity [1] of 87.28%, an Activity (SW-620) of 92.61% and an Activity (HCT-116) of 87.15%. For the same compound, the Activity (NCI-H226) was 73.27%, the Activity (HT-29) was 100.49% and the Activity (U-251) was 92.92%. It also gave an Activity (SK-MEL-28) of 106.79% and an Activity (SNB-19) of 99.04%.
With COc1ccc(NC(=O)c2sc3nc4c(cc3c2N)C(=O)CCC4)cc1 the Activity (UO-31) was 106.6%, the Activity (DU-145) was 102.19% and the Activity (PC-3) was 99.67%. It also gave an Activity (KM12) of 105.15%, an Activity (NCI-H460) of 96.07% and an Activity (RPMI-8226) of 104.85%. It also gave an Activity (A549) of 97.44%, an Activity (HCC 2998) of 94.7% and an Activity (BT-549) of 103.09%. For the same compound, the Activity (MDA-MB-435) was 97.12%, the Activity (OVCAR-3) was 103.75% and the Activity (LOX IMVI) was 100.6%. It also gave an Activity (HL-60(TB)) of 109.37%, an Activity (A498) of 39.38% and an Activity (786-0) of 100.45%. For the same compound, the Activity (SK-OV-3) was 115.02%, the Activity (HOP-62) was 112.48% and the Activity (SNB-75) was 103.13%. For the same compound, the Activity (OVCAR-5) was 99.71%, the Activity (CCRF-CEM) was 88.17% and the Activity (NCI-H522) was 100.22%. For the same compound, the Activity (COLO 205) was 122.21%, the Activity (HOP-92) was 78.47% and the Activity (NCI-H322M) was 57.79%. It also gave an Activity (MDA-MB-231) of 116.49%, an Activity (EKVX) of 102.57% and an Activity (HCT-15) of 100.8%. For the same compound, the Activity (SF-268) was 109.11%, the Activity (SF-295) was 80.98% and the Activity (MOLT-4) was 115.9%. It also gave an Activity (CAKI-1) of 97.06%, an Activity (UACC-257) of 117.22% and an Activity (MDA-MB-468) of 87.19%. The Activity (Malme-3M) was 102.12%, the Activity (OVCAR-8) was 107.58% and the Activity (NCI-H23) was 96.26%. The Activity (SR) was 113.2%, the Activity (RXF 393) was 101.13% and the Activity (Hs-578T) was 135.57%. For the same compound, the Activity (SN12C) was 116.88%, the Activity (MCF7) was 104.14% and the Activity (TK-10) was 103.14%. For the same compound, the Activity (M14) was 103.89%, the Activity (SF-539) was 102.64% and the Activity (UACC-62) was 110.45%. The Activity (T47D) was 110.7%, the Activity (SK-MEL-2) was 114.87% and the Activity (K562) was 116.6%. It also gave an Activity (IGROV-1) of 114.88%, an Activity (SK-MEL-5) of 98.62% and an Activity (ACHN) of 105.22%. The Activity (OVCAR-4) was 107.69%, the Activity [1] was 103.46% and the Activity (SW-620) was 111.85%. For the same compound, the Activity (HCT-116) was 97.11%, the Activity (NCI-H226) was 95.31% and the Activity (HT-29) was 108.88%. The Activity (U-251) was 106.61%, the Activity (SK-MEL-28) was 106.67% and the Activity (SNB-19) was 116.74%.
